Test results published in patent US20250304540A1, “2-METHYL-2-THIAZOLINE SALT” (Myrodia Therapeutics Co., Ltd., priority 2022, published 2025).
Counter-ions that a name gives are not always drawn.

Key:
Assay type in all cases: physicochemical
[1] = Stability in the solid state at 40° C., checked by 1H NMR; settings: vial, heated to 40° C., left standing for three days
Method: 2-MT-NDSA salt was placed in a vial, heated to 40° C., and left standing for three days. […] Thus, it can be said that 2-MT·NDSA salt is stable in the solid state at 40° C. for 3 days (corresponding to 2 weeks at 25° C.).

[2] = Humidity stress test with XRPD analysis; settings: unsealed vial, 7 days
Method: XRPD analyses were performed using a Panalytical Empyrean diffractometer equipped with a Cu X-ray tube and a PIXcel 1D-Medipix3 detector system. The samples were analyzed at ambient temperature in transmission mode and held between low density PVC films. The XRPD program was used (range 3-40° […], step size 0.013°, counting time 99 sec, about 22 min run time/counting time 49 sec, about 11 min run time/counting time 22 sec, about 5 min run time). Samples were spun at 60 rpm during data collection. XRPD patterns were sorted and manipulated using HighScore Plus 2.2c/v4.9 software.
A given amount of salt was charged into a vial and placed unsealed in a thermostatic tank at 40° C./75% relative humidity or ambient temperature for 7 days and XRPD analysis was performed.

[3] = Deliquescence by visual observation; settings: relative humidity of about 75%, 25° C., 23 hr
Method: A petri dish containing 2-MT-NDSA salt was placed in a relative humidity of about 75%, and left standing in a thermostatic tank at 25° C. for 23 hr.

[4] = Solubility in phosphate buffered saline by visual observation; settings: aqueous buffer, thermodynamic from solid, phosphate buffered saline (PBS pH 7.2-7.4), room temperature
Method: When 2-MT-NDSA salt (20 mg) was added to phosphate buffered saline (PBS pH 7.2-7.4, FUJIFILM Wako Pure Chemical Corporation 164-18541, 1 mL) at room temperature, the salt was dissolved easily. The 2-MT-NDSA salt was further added by […] to the solution. By visual observation to confirm dissolution, undissolved remainder was confirmed when the total amount reached 200 mg. Thus, the solubility under the present conditions was 100 mg/mL to 200 mg/mL.

CC1=NCCS1 [2-MT-NDSA salt, monohydrate of a hemi-1,5-naphthalenedisulfonic acid salt of 2-methyl-2-thiazoline]
stability in the solid state (1H NMR before and after) [1]: no change in the peaks was observed
physical stability post storage (XRPD) ([2]; 40° C./75% relative humidity): physically stable
physical stability post storage (XRPD) ([2]; ambient temperature): physically stable
deliquescence [3]: No deliquescence
solubility [4]: 100 to 200 mg/mL
